Experimental findings from ChEMBL document CHEMBL1134921 (Bioorg Med Chem Lett, 2002) are described below.

The species named for assay [1] is Mus musculus. Briefly: Effective dose for Antinociceptive activity was determined in mice using Tail -Flick Assay. In kind it is functional.
Assay [2] addresses Neuronal nicotinic acetylcholine receptor. Briefly: Binding affinity against Nicotinic acetylcholine receptor using [3H](-)-nicotine radioligand. In kind it is protein-complex assay.
For assay [3], the species on record is Rattus norvegicus. Briefly: Effective dose for Antinociceptive activity was determined in rat using drug discrimination assay. In kind it is functional.
In assay [4] the test system is Mus musculus. Briefly: Effective dose for Antinociceptive activity expressed as Spontaneous activity was determined in mice antagonized by 1 mg/Kg of Mecamylamine. In kind it is functional.
The species named for assay [5] is Rattus norvegicus. Briefly: Effective dose for Antinociceptive activity was determined in rat using drug discrimination assay: The symbol > signifies that no effect was produced at that dose. In kind it is functional.
For assay [6], the species on record is Mus musculus. The assay can be described thus: Effective dose for Antinociceptive activity was determined in mice using Tail -Flick Assay: The symbol > signifies that no effect was produced at that dose. It counts as functional.
For assay [7], the system named is Mus musculus. The assay can be described thus: Effective dose for Antinociceptive activity expressed as Spontaneous activity was determined in mice antagonized by 1 mg/Kg of Mecamylamine: The symbol > signifies that no effect was produced at that dose. In kind it is functional.
The test system of assay [8] is Mus musculus. Briefly: Compound was tested to antagonize the antinociceptive actions of 2.5 mg/kg of (-)nicotine as measured in the tail-flick assay in mice. It counts as functional. A general note: In hot-plate and tail-flick tests a longer latency is read as antinociception.
The mark [9] stands for this setting: Mus musculus, Tail, read-out: ED50.
[10] abbreviates: Rattus norvegicus, read-out: ED50.

Some results are limits rather than exact numbers.

A word on the Ki: it is a measure of affinity in units of concentration, obtained from inhibition or displacement. A lower Ki goes with a stronger hold on the target. For `CCc1ccc(C2CCCN2C)cn1` (single isomer, unassigned; (-)), the ED50 in assay [1] (setting [9]) turned out to be 2.1 µmol/kg; in assay [3] (setting [10]), 1.1 µmol/kg; in assay [4] (Mus musculus, read-out: ED50), 1.4 µmol/kg. In assay [2], this compound registered a Ki of 5.6 nM.

As for `CCCc1ccc(C2CCCN2C)cn1` (racemic), the affinity in assay [2], expressed as Ki, was 25 nM. In addition, the ED50 was over 20 µM/kg in assay [5] and over 70 µmol/kg in assay [6].

As to `Cc1ccc(C2CCCN2C)cn1` (racemic), the ED50 stood at 3.5 µmol/kg in assay [1] (setting [9]); 0.4 µmol/kg in assay [3] (setting [10]); 1 µmol/kg in assay [4] (Mus musculus, read-out: ED50). Also, the affinity in assay [2] corresponds to a Ki of 1.8 nM.

For `CCCCCc1ccc(C2CCCN2C)cn1` (racemic), the ED50 in assay [7] and in assay [6] was over 50 µmol/kg each time. Moreover, the inhibitory constant (Ki) in assay [2] came to 72 nM.

As to `CN1CCC[C@H]1c1cccnc1` [NICOTINE], the ED50 worked out at 7.4 µM/kg in assay [1], 0.6 µM/kg in assay [3] and 3.1 µM/kg in assay [4].

Consider `CN1CCC[C@H]1c1cccnc1` (racemic) [NICOTINE], for which the ED50 was found to be 9.9 µmol/kg in assay [1] (setting [9]); 0.6 µmol/kg in assay [3] (setting [10]); 4.9 µmol/kg in assay [4] (Mus musculus, read-out: ED50).

Take `CCCc1ccc(C2CCCN2C)cn1` (single isomer, unassigned; (-)): the ED50 is over 35 µmol/kg in assay [7] and over 50 µM/kg in assay [5]. This compound also came in with a Ki in assay [2] of 22 nM. Moreover, the AD50 in assay [8] stood at 4.9 µM/kg.

In assay [2], `CCCCc1ccc(C2CCCN2C)cn1` (single isomer, unassigned; (-)) displayed a Ki of 21 nM. This compound also had an ED50 in assay [6] of over 50 µmol/kg. Also, the AD50 in assay [8] is 9.2 µM/kg.
